# Source: US9101569B2, “Methods for the treatment of insulin resistance” (UNIVERSITE DE GENEVE, priority 2010, dated 2015)
# Assays:
# HFD-induced obese rats [1] = assay: High-fat diet-induced obesity rat model, i.c.v. OT infusion: body weight gain and food intake; assay type: in vivo; details: 14 days, compared with saline
# Experimental: The beneficial metabolic effects of OT administration were assayed in the following high-fat diet-induced obesity model in rats.
# Male Wistar (300-325 g) rats were purchased from Charles River (L′Arbresle, France) and housed in individual cages under conditions of controlled temperature (22° C.) and illumination (light on: 07:00-19:00 h). They were allowed free access to water and a 45% high fat diet (HFD) (metabolized energy, 4.56 kcal/g) (Ssniff® EF R/M acc. D12451 (I) mod., ssniff Spezialdiaten GmbH, Soest, Germany) for seven weeks. Body weight, food intake and water intake were recorded daily (08:30-09:30 h). All procedures were approved by the Ethic Committee of our University and were in accordance with the Swiss guidelines for animal experimentation.
# To study the role of OT on metabolic homeostasis, the above male Wistar rats were rendered obese by 7 weeks of HFD 45% and were intracerebroventricularly (i.c.v.) infused with either OT (1.6 nmol/d) or saline during the last 2 weeks of the experiment.
# After three weeks of HFD feeding, rats were submitted to surgical procedures. They were anesthetized with intramuscular injection of ketamine-xylasine (Ketalar®-Rompun®, Parke-Davis and Bayer, Leverkusen, Switzerland) at 40 and 9 mg/kg, respectively, and implanted with a cannula in the right lateral cerebral ventricle fixed on the skull with dental cement, as previously described (Rohner-Jeanrenaud et al., 1989, Endocrinology 124, 733-9). After one week of recovery, the drinking response to i.c.v. injection of Angiotensin II (5 ng/μl) (Novabiochem, Laüfelfingen, Switzerland) was measured to confirm the correct placement of the cannula. At the end of the fifth week of high fat diet feeding, osmotic minipumps (Alzet®, model 2001, Alza Corporation, Cupertino, Calif.) delivering oxytocin (NeoMPS®, Strasbourg, France) or its vehicle (NaCl 0.9%) were subcutaneously implanted and connected to the i.c.v. cannula via a polyethylene catheter, as previously described (Rohner-Jeanrenaud et al., 1989, above). OT was delivered at a dose of 1.6 nmol/day/rat or 16 nmol/day/rat during 14 days. A group of vehicle-infused rats was pair-fed to the amount of food consumed by OT-infused animals in order to assess the effects of OT independently from changes in food intake. The pair-feeding regimen consisted in giving one-third of the daily food amount in the morning and the remaining two-thirds just before onset of darkness. Rats were sacrificed using isoflurane anesthesia (Halocarbon Laboratories, River Edge, N.J.) and rapid decapitation between 09:00 and 13:00 h. Blood samples were collected into EDTA-coated tubes, centrifuged and plasma stored at −20° C. Tissues were rapidly removed, freeze-clamped, and stored at −80° C.
# [2] = test system: enzymes involved in lipid metabolism; assay: Tissue expression of lipid metabolism enzymes (real-time RT-PCR) after i.c.v. OT infusion; assay type: in vivo, rat
# Experimental: To delineate the mechanisms responsible for the effect on peripheral metabolism, the expression of enzymes involved in lipid metabolism was analyzed in adipose tissues (epididymal white and interscapular brown adipose tissues). Total RNAs were extracted from frozen tissue using a single-step extraction with Trizol reagent (Sigma-Aldrich, Buchs, Switzerland). RNA integrity was assessed by electrophoresis on a 1% agarose gel and concentration was determined by spectrophotometry. An amount of 2.5 μg of total RNAs was used for RT using random hexamers (Microsynth, Geneva, Switzerland), dNTPs (Promega Corporation, Madison, Wis., USA), RNasin as an RNase inhibitor (Promega Corporation) and the Moloney Murine Leukemia Virus Reverse Transcriptase (M-MLV-RT) enzyme kit (Invitrogen, Basel, Switzerland). For quantitative PCR (qPCR), amplification of genes was performed from 6.25 or 12.5 ng cDNA, using the SYBR® green PCR Master Mix (Applied Biosystems, Warrington, UK) and an ABI7500 machine (Applied Biosystems, Foster City, Calif.). All the primers were designed (FIG. 9, Table 1) with the PrimerExpress software (http://phym.unige.ch/) and used at a concentration of 200 to 300 nM for qPCR. Results were normalized to the expression levels of the housekeeping gene, ribosomal protein S29 (RPS29).
# HFD-induced obese rats [3] = assay: HOMA-IR and euglycemic-hyperinsulinemic clamps after subcutaneous OT infusion; assay type: in vivo, rat; details: s.c. 50 nmol/day, 14 days
# Experimental: Global and tissue-specific glucose utilization rates were measured by performing euglycemic-hyperinsulinemic clamps associated with the labeled 2-deoxyglucose technique as previously described (Vettor et al., 1994, Diabetologia, 37, 1202-1208). HFD-induced obese rats were overnight fasted and intraperitoneally anesthetized with Nembutal (75 mg/kg sodium pentobarbital; Abbott Laboratories, Chicago, Ill.). Total glucose utilization was measured during euglycemic-hyperinsulinemic clamps, as previously described (Vettor et al., 1994, above). At the end of the clamp, the in vivo insulin-stimulated glucose utilization index of individual tissues was determined by injecting a single bolus of labeled 2-deoxy-D-[1-3H]glucose (30 μCi; Amersham Biosciences UK, Little Chalfont, UK), as previously described (Vettor et al., 1994, above). […]
# The beneficial effects of OT administration were assessed in the same rat model of high-fat diet induced obesity as in Example 1. […]
# Insulinemia and glycemia were measured after an overnight fast before the euglycemic hyperinsulinemic clamps) and were used to calculate the “homeostasis model assessment of insulin resistance” (HOMA-IR). HOMA-IR was calculated as follows: (fasting serum insulin in mU/l)×(fasting blood glucose in mM)/22.5.
# The effect of peripheral OT administration on high fat diet-induced insulin resistance was determined as described in Example 1.
# [4] = interscapular brown adipose tissue (BAT), i.c.v. OT
smiles,measurement,setting,value
"CC[C@H](C)[C@@H]1NC(=O)[C@H](Cc2ccc(O)cc2)NC(=O)[C@@H](N)CSSC[C@@H](C(=O)N2CCC[C@H]2C(=O)N[C@@H](CC(C)C)C(=O)NCC(N)=O)NC(=O)[C@H](CC(N)=O)NC(=O)[C@H](CCC(N)=O)NC1=O [OT, Cys-Tyr-Ile-Gln-Asn-Cys-Pro-Leu-Gly (SEQ ID NO: 1)]",cumulative body weight gain,HFD-induced obese rats [1]; i.c.v. 1.6 nmol/d,more than fifty percent decrease
same,cumulative food intake,HFD-induced obese rats [1]; i.c.v. 1.6 nmol/d,without any effect
same,food efficiency (ratio of body weight gain to cumulative food intake),HFD-induced obese rats [1]; i.c.v. 1.6 nmol/d,marked decrease
same,cumulative food intake,HFD-induced obese rats [1]; i.c.v. 16 nmol/d,decreased
same,body weight gain,"HFD-induced obese rats [1]; i.c.v. 16 nmol/d, not observed in pair-fed group",significantly lower
same,mRNA expression of PPAR-alpha and its target genes,"[2]; BAT, OT infusion (16 nmol/d experiment)",significantly increased
same,Acaca mRNA expression,"[2]; eWAT, i.c.v. 1.6 nmol/d",did not modify
same,Acadm mRNA expression,"[2]; eWAT, i.c.v. 1.6 nmol/d",increased
same,Acox1 mRNA expression,"[2]; eWAT, i.c.v. 1.6 nmol/d",increased
same,Dgat1 mRNA expression,"[2]; eWAT, i.c.v. 1.6 nmol/d",did not modify
same,Ehhadh mRNA expression,"[2]; eWAT, i.c.v. 1.6 nmol/d",increased
same,Fasn mRNA expression,"[2]; eWAT, i.c.v. 1.6 nmol/d",did not modify
same,HSL mRNA expression,"[2]; eWAT, i.c.v. 1.6 nmol/d",increased
same,Lpl mRNA expression,"[2]; eWAT, i.c.v. 1.6 nmol/d",increase
same,Pnpla2 mRNA expression,"[2]; eWAT, i.c.v. 1.6 nmol/d",increased
same,Scd1 mRNA expression,"[2]; eWAT, i.c.v. 1.6 nmol/d",marked increase
same,Ucp3 mRNA expression,"[2]; eWAT, i.c.v. 1.6 nmol/d",enhanced
same,PPAR-alpha mRNA,"[2]; eWAT, i.c.v. 16 nmol/d",did not modify
same,"expression of PPAR-alpha target genes (Acadm, Acox1, Ehhadh, Ucp3)","[2]; eWAT, i.c.v. 16 nmol/d, food intake-independent",increases
same,stimulatory effect on Scd1 mRNA expression,[2]; i.c.v. 1.6 nmol/d (lower dose),4.2 folds
same,stimulatory effect on Scd1 mRNA expression,[2]; i.c.v. 16 nmol/d,5.6 folds
same,PPAR-alpha expression,[2]; [4],significantly increased
same,expression of the main enzymes involved in fatty acid β-oxidation,[2]; [4],significantly increased
same,expression of genes involved in fatty acid β-oxidation,"[2]; skeletal muscle, central OT infusion",did not modify
same,glucose infusion rate (GIR),HFD-induced obese rats [3],significantly increased
same,HOMA-IR,"HFD-induced obese rats [3]; compared to saline, not observed in pair-fed group",lower
